Biological target: recombinant human CETP protein (Homo sapiens (Human), UniProt P11597)
Assay: Test of CETP inhibition activity (in vitro, buffer-based)
Type: biochemical
Settings: reconstituted HDL with [14C]-labeled cholesteryl ester, acceptor lipoprotein, 37° C.
Procedure: Test of CETP Inhibition Activity (In Vitro, Buffer-Based)
(1) Preparation of Reconstituted HDL
Cholesterol (1.125 μmol), phosphatidyl choline (4.5 μmol) and [^14C]-labeled cholesteryl ester (2.0 μCi; 40 μl) were taken in a glass test tube and well mixed with a vortex, and dried under a nitrogen gas current so that it formed a thin film. The obtained mixture was dissolved in ethanol (200 μl), which was designated as Solution A. A PBS solution [a mixed solution of Na2HPO4 (30 mM), KH2PO4 (8.8 mM), NaCl (60 mM) and EDTA (pH 7.4; 0.67 mM); 4 ml] was taken in a tube and the reaction solution was vigorously stirred with a vortex under a nitrogen current. The above-described Solution A was gently injected into this mixture with a syringe and the reaction solution was vigorously stirred with a vortex for 5 minutes under a nitrogen current. Sodium cholate ([…]; 0.38 ml) was added to the obtained mixture and the reaction solution was stirred for 2 minutes. ApoA-I protein (3 mg) was added to the obtained mixture and the reaction solution was stirred for 2 minutes. The obtained mixture was adjusted to 5 ml with the PBS solution and then dialyzed with the PBS solution. The obtained mixture was designated as the reconstituted HDL.
(2) Preparation of Acceptor Lipoprotein
NaBr was added to the plasma of a healthy person and the density of the mixture was adjusted to 1.019, and the mixture was subjected to density gradient centrifugation (40000 rpm, for 16 hours) to remove the fraction having a density of less than 1.019. NaBr was added to the obtained mixture and the density of the solution was adjusted to 1.063, and the solution was subjected to density gradient centrifugation (40000 rpm, 18 hours) to provide the fraction consisting of IDL (intermediate density lipoprotein) and LDL (1.019<density<1.063). The obtained fraction was dialyzed with the PBS solution. The obtained mixture was designated as the acceptor lipoprotein.
(3) Measurement of CETP Inhibition Activity
A recombinant human CETP protein (manufactured by Roar Biomedical Inc.; 4.5 ng), the acceptor lipoprotein described in (2) above (32.5 μg) and 5,5′-dithio-bis-(2-nitrobenzoic acid) (7 mM, 15 μl) were taken in a 96 well plate and the total amount of the mixture was adjusted to 48.5 μl with the PBS solution. The test compound [DMSO solution (concentration: 0.15, 0.5, 1.5, 5, 15, 50, 150 and 500 μM; 1.5 μl] was added to each well and the mixture was incubated in a thermostatic bath at 37° C. for 60 minutes. The reconstituted HDL (50 μl) described in (1) above was added to each well and the mixture was reacted in a thermostatic bath at 37° C. for 60 minutes. The 96 well plate was moved onto ice and a precipitation reagent [a mixed solution of magnesium chloride (60 mM) and 0.1% dextran sulfate [1/1 (v/v)]; 15 μl] was added to each well, and then the mixture was allowed to stand on ice for 15 minutes. The reaction solution (80 μl) in each well was moved to a filter plate and centrifuged at 1500 rpm for 1 minute, and the filtrate which passed through the filter was designated as the HDL fraction and the radioactivity thereof was measured with a scintillation counter. The percentage decrease in radioactivity in the case where the test compound was added in comparison with that in case where the test compound was not added was designated as the percentage CETP inhibition. The IC50 value was calculated from the percentage CETP inhibition.

Chain of recombinant human CETP protein (P11597 18-493): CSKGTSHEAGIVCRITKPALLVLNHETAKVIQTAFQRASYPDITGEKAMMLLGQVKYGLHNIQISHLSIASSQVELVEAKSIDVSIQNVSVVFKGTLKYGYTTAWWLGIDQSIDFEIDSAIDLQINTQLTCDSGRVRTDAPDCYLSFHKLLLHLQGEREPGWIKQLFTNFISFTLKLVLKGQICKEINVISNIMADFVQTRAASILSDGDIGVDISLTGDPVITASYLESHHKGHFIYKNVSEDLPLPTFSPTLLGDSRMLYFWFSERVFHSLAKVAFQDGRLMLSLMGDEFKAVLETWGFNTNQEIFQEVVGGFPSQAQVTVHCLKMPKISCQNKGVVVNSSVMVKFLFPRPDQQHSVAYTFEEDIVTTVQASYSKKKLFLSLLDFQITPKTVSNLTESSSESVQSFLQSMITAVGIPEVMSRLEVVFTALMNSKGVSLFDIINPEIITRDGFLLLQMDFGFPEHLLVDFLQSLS

Row | Structure (SMILES) | IC50 [nM]
1 | CN1CC[C@@H](Oc2cnc(N3CCC(c4nc5c(c(C6CCC(F)(F)CC6)c4C(F)c4ccc(C(F)(F)F)cc4)C(O)CC(C)(C)C5)CC3)nc2)C1 (single isomer, unassigned) [Example 41] | 16
2 | C[C@@H](O)COc1cnc(N2CCC(c3nc4c(c(C5CCC(F)(F)CC5)c3[C@@H](F)c3ccc(C(F)(F)F)cc3)[C@@H](O)CC(C)(C)C4)CC2)nc1 (single isomer, unassigned) [Example 42] | 22
3 | CC(C)(O)CCOc1cnc(N2CCC(c3nc4c(c(C5CCC(F)(F)CC5)c3[C@@H](F)c3ccc(C(F)(F)F)cc3)[C@@H](O)CC(C)(C)C4)CC2)nc1 (single isomer, unassigned) [Example 43, (−)-4-(4,4-Difluorocyclohexyl)-3-{fluoro[4-(trifluoromethyl)phenyl]methyl}-2-{1-[5-(3-hydroxy-3-methylbutoxy)pyrimidin-2-yl]piperidin-4-yl}-7,7-dimethyl-5,6,7,8-tetrahydroquinolin-5-ol] | 9
4 | CC1(C)Cc2nc(C3CCN(c4ncc(OCCCS(C)(=O)=O)cn4)CC3)c([C@@H](F)c3ccc(C(F)(F)F)cc3)c(C3CCC(F)(F)CC3)c2[C@@H](O)C1 (single isomer, unassigned) [Example 45, (−)-4-(4,4-Difluorocyclohexyl)-3-{fluoro[4-(trifluoromethyl)phenyl]methyl}-7,7-dimethyl-2-(1-{5-[3-(methylsulphonyl)propoxy]pyrimidin-2-yl}piperidin-4-yl)-5,6,7,8-tetrahydroquinolin-5-ol] | 13
5 | CC1(C)Cc2nc(C3CCN(c4ncc(OCCC(F)(F)F)cn4)CC3)c([C@@H](F)c3ccc(C(F)(F)F)cc3)c(C3CCC(F)(F)CC3)c2[C@@H](O)C1 (single isomer, unassigned) [Example 47, (−)-4-(4,4-Difluorocyclohexyl)-3-{fluoro[4-(trifluoromethyl)phenyl]methyl}-7,7-dimethyl-2-{1-[5-(3,3,3-trifluoropropoxyl)pyrimidin-2-yl]piperidin-4-yl}-5,6,7,8-tetrahydroquinolin-5-ol] | 31
6 | CC1(C)Cc2nc(C3CCN(c4ncc(OC(F)F)cn4)CC3)c([C@@H](F)c3ccc(C(F)(F)F)cc3)c(C3CCC(F)(F)CC3)c2[C@@H](O)C1 (single isomer, unassigned) [Example 48, (−)-4-(4,4-Difluorocyclohexyl)-2-{1-[5-(difluoromethoxy)pyrimidin-2-yl]piperidin-4-yl}-3-{fluoro[4-(trifluoromethyl)phenyl]methyl}-7,7-dimethyl-5,6,7,8-tetrahydroquinolin-5-ol] | 42
7 | CC1(C)Cc2nc(C3CCN(c4ncc(OCC(CO)CO)cn4)CC3)c([C@@H](F)c3ccc(C(F)(F)F)cc3)c(C3CCC(F)(F)CC3)c2[C@@H](O)C1 (single isomer, unassigned) [Example 49, (−)-4-(4,4-Difluorocyclohexyl)-3-{fluoro[4-(trifluoromethyl)phenyl]methyl}-2-(1-{5-[3-hydroxy-2-(hydroxymethyl)propoxy]pyrimidin-2-yl}piperidin-4-yl)-7,7-dimethyl-5,6,7,8-tetrahydroquinolin-5-ol] | 8
8 | CC1(C)Cc2nc(C3CCN(c4ncc(OCC(C)(CO)CO)cn4)CC3)c([C@@H](F)c3ccc(C(F)(F)F)cc3)c(C3CCC(F)(F)CC3)c2[C@@H](O)C1 (single isomer, unassigned) [Example 50, (−)-4-(4,4-Difluorocyclohexyl)-3-{fluoro[4-(trifluoromethyl)phenyl]methyl}-2-(1-{5-[3-hydroxy-2-(hydroxymethyl)-2-methylpropoxy]pyrimidin-2-yl}piperidin-4-yl)-7,7-dimethyl-5,6,7,8-tetrahydroquinolin-5-ol] | 13
9 | CN(Cc1cnc(N2CCC(c3nc4c(c(C5CCC(F)(F)CC5)c3[C@@H](F)c3ccc(C(F)(F)F)cc3)[C@@H](O)CC(C)(C)C4)CC2)nc1)S(C)(=O)=O (single isomer, unassigned) [Example 51, (−)-4-(4,4-Difluorocyclohexyl)-3-{fluoro[4-(trifluoromethyl)phenyl]methyl}-7,7-dimethyl-2-[1-(5-{[methyl(methylsulphonyl)amino]methyl}pyrimidin-2-yl)piperidin-4-yl]-5,6,7,8-tetrahydroquinolin-5-ol] | 6
10 | CC(C)S(=O)(=O)N(C)Cc1cnc(N2CCC(c3nc4c(c(C5CCC(F)(F)CC5)c3[C@@H](F)c3ccc(C(F)(F)F)cc3)[C@@H](O)CC(C)(C)C4)CC2)nc1 (single isomer, unassigned) [Example 52, 4-(4,4-Difluorocyclohexyl)-3-{fluoro[4-(trifluoromethyl)phenyl]methyl}-7,7-dimethyl-2-[1-(5-{[methyl(propan-2-ylsulfonyl)amino]methyl}pyrimidin-2-yl)piperidin-4-yl]-5,6,7,8-tetrahydroquinolin-5-ol] | 6
11 | CSc1cnc(N2CCC(c3nc4c(c(C5CCC(F)(F)CC5)c3[C@@H](F)c3ccc(C(F)(F)F)cc3)[C@@H](O)CC(C)(C)C4)CC2)nc1 (single isomer, unassigned) [Example 53, (−)-4-(4,4-Difluorocyclohexyl)-3-{fluoro[4-(trifluoromethyl)phenyl]methyl}-7,7-dimethyl-2-[1-(5-methylthiopyrimidin-2-yl)-piperidin-4-yl]-5,6,7,8-tetrahydroquinolin-5-ol] | 34
12 | CC1(C)Cc2nc(C3CCN(c4ncc(S(C)(=O)=O)cn4)CC3)c([C@@H](F)c3ccc(C(F)(F)F)cc3)c(C3CCC(F)(F)CC3)c2[C@@H](O)C1 (single isomer, unassigned) [Example 54, (−)-4-(4,4-Difluorocyclohexyl)-3-{fluoro[4-(trifluoromethyl)phenyl]methyl}-7,7-dimethyl-2-{1-[5-(methylsulphonyl)pyrimidin-2-yl]piperidin-4-yl}-5,6,7,8-tetrahydroquinolin-5-ol] | 32
13 | CN(CCO)c1cnc(N2CCC(c3nc4c(c(C5CCC(F)(F)CC5)c3[C@@H](F)c3ccc(C(F)(F)F)cc3)[C@@H](O)CC(C)(C)C4)CC2)nc1 (single isomer, unassigned) [Example 56, 4-(4,4-Difluorocyclohexyl)-3-{fluoro[4-(trifluoromethyl)phenyl]methyl}-2-(1-{5-[(2-hydroxyethyl)(methyl)amino]pyrimidin-2-yl}piperidin-4-yl)-7,7-dimethyl-5,6,7,8-tetrahydroquinolin-5-ol] | 28
14 | CC1(C)Cc2nc(C3CCN(c4ncc(N5CC[C@H](O)C5)cn4)CC3)c([C@@H](F)c3ccc(C(F)(F)F)cc3)c(C3CCC(F)(F)CC3)c2[C@@H](O)C1 (single isomer, unassigned) [Example 57] | 33
15 | CC(C)(O)COc1cnc(N2CCC(c3nc4c(c(C5CCC(F)(F)CC5)c3[C@@H](F)c3ccc(C(F)(F)F)cc3)[C@@H](O)CC(C)(C)C4)CC2)nc1 (stereo in doubt) [Example 44, 4-(4,4-Difluorocyclohexyl)-3-{fluoro[4-(trifluoromethyl)phenyl]methyl}-2-{1-[5-(2-hydroxy-2-methylpropoxy)pyrimidin-2-yl]piperidin-4-yl}-7,7-dimethyl-5,6,7,8-tetrahydroquinolin-5-ol] | 21
16 | CC1(C)Cc2nc(C3CCN(c4ncc(CO)cn4)CC3)c([C@@H](F)c3ccc(C(F)(F)F)cc3)c(C3CCC(F)(F)CC3)c2[C@@H](O)C1 [Example 20, (−)-4-(4,4-Difluorocyclohexyl)-3-{fluoro[4-(trifluoromethyl)phenyl]methyl}-2-[1-[5-(hydroxymethyl)pyrimidin-2-yl]piperidin-4-yl]-7,7-dimethyl-5,6,7,8-tetrahydroquinolin-5-ol] | 255
17 | C[C@H](O)COc1cnc(N2CCC(c3nc4c(c(C5CCC(F)(F)CC5)c3[C@@H](F)c3ccc(C(F)(F)F)cc3)[C@@H](O)CC(C)(C)C4)CC2)nc1 [Example 37, (−)-4-(4,4-Difluorocyclohexyl)-3-{fluoro[4-(trifluoromethyl)phenyl]methyl}-2-[1-(5-{[(2S)-2-hydroxypropyl]oxy}pyrimidin-2-yl)piperidin-4-yl]-7,7-dimethyl-5,6,7,8-tetrahydroquinolin-5-ol] | 25

Source: patent US9187450B2, “Substituted pyridine compound” (Daiichi Sankyo Company, Limited, priority 2010, dated 2015)
